Measured values as given in US20250295732A1, “COMPOSITIONS AND METHODS FOR ACTIVATING INNATE IMMUNITY” (Zoetis Services LLC, priority 2021, published 2025).

Tested on: bovine monocyte-derived macrophages
Test: microRNASeq analysis
Assay type: cell-based
Conditions: CATH2 vs vehicle
From the text: Peripheral blood mononuclear cells (PBMC) were isolated from bovine blood using ficoll gradients. Bovine monocytes were isolated from PBMC using magnetic assisted cell sorting to positively select for CD14+ cells using anti-human CD14 microbeads (Miltenyi Biotec). Purified bovine blood CD14+ monocytes were differentiated into macrophages using an M2-skewing differentiation factor (recombinant bovine M-CSF) over 7 days then exposed to CATH2 or a vehicle control in the presence of bovine casein to mimic aspects of the mammary gland for 24 hr. Following treatment, vehicle and drug were removed and cells were washed to eliminate residual drug and monocyte-derived macrophages were rested for 3 days in order to assess reprogramming. Following the rest period, a subset of vehicle- and CATH2-trained monocyte-derived macrophages were assessed for epigenetic and transcriptomic changes. The remaining cells were challenged with LPS or E. coli bioparticle labeled with pH-sensitive pHrodo green dye and key parameters for macrophage activation/immune response were assessed including glycolytic activity, surface marker expression, gene expression, cytokine production, phagocytosis, reactive nitrogen species production, and miRNA profiling.
Bovine monocyte-derived macrophages were lysed in Buffer RLT with addition of (3-mercaptoethanol (QIAGEN) and stored at −80° C. until miRNA/mRNA isolations could be performed. Total RNA including miRNA was isolated from cell lysates using the miRNeasy Tissues/Cells Advanced kit (QIAGEN) following the manufacturer's instructions. mRNA and miRNA libraries were prepared using the TruSeq Stranded mRNA Library Prep Kit (Illumina) and QIAseq miRNA Library Kit, respectively (QIAGEN) according to the manufacturer's instructions. Libraries were run on the Illumina NextSeq550 System. Sequencing data were analyzed using CLC Genomics Workbench software and QIAGEN Ingenuity Pathway Analysis (IPA).

[1] = 3-day rest, 8-hour post-LPS, Experiment A
[2] = 3-day rest, 8-hour post-LPS, Experiment B
[3] = 3-day rest, 24-hour post-LPS, Experiment A
[4] = 3-day rest, 24-hour post-LPS, Experiment B
[5] = after 3-day rest, prior to LPS challenge

## RFGRFLRKIRRFRPKVTITIQGSARFG [CATH2, cathelicidin 2 peptide]
[1]
  bta-miR-146b Fold change: 2.85
  bta-miR-146b Log2 fold change: 1.51
  bta-miR-148a Fold change: −1.79
  bta-miR-148a Log2 fold change: −0.84
  bta-miR-181b Fold change: 1.60
  bta-miR-181b Log2 fold change: 0.68
  bta-miR-1814c Fold change: −1.77
  bta-miR-1814c Log2 fold change: −0.83
  hsa-miR-155-5p Fold change: 1.89
  hsa-miR-155-5p Log2 fold change: 0.92
[2]
  bta-miR-146b Fold change: 1.56
  bta-miR-146b Log2 fold change: 0.64
  bta-miR-148a Fold change: −1.44
  bta-miR-148a Log2 fold change: −0.52
  bta-miR-181b Fold change: 1.76
  bta-miR-181b Log2 fold change: 0.82
  bta-miR-1814c Fold change: −2.05
  bta-miR-1814c Log2 fold change: −1.04
  hsa-miR-155-5p Fold change: 2.20
  hsa-miR-155-5p Log2 fold change: 1.14
[3]
  bta-miR-146b Fold change: 4.52
  bta-miR-146b Log2 fold change: 2.18
  hsa-miR-146b-5p Fold change: 2.27
  hsa-miR-146b-5p Log2 fold change: 1.18
[4]
  bta-miR-146b Fold change: 4.34
  bta-miR-146b Log2 fold change: 2.12
  hsa-miR-146b-5p Fold change: 1.71
  hsa-miR-146b-5p Log2 fold change: 0.77
[5]
  bta-miR-27a-3p Fold change: −1.31
  bta-miR-27a-3p Log fold change: −0.39
  bta-miR-29a Fold change: −1.36
  bta-miR-29a Log fold change: −0.44
  bta-miR-29c Fold change: −1.45
  bta-miR-29c Log fold change: −0.54
  bta-miR-30f Fold change: 1.57
  bta-miR-30f Log fold change: 0.65
  bta-miR-92b Fold change: 1.52
  bta-miR-92b Log fold change: 0.60
  bta-miR-101 Fold change: −1.47
  bta-miR-101 Log fold change: −0.55
  bta-miR-142-5p Fold change: −1.43
  bta-miR-142-5p Log fold change: −0.51
  bta-miR-148a Fold change: −1.78
  bta-miR-148a Log fold change: −0.83
  bta-miR-148b Fold change: −1.43
  bta-miR-148b Log fold change: −0.51
  bta-miR-149-5p Fold change: 1.43
  bta-miR-149-5p Log fold change: 0.52
  bta-miR-181b Fold change: 1.38
  bta-miR-181b Log fold change: 0.47
  bta-miR-184 Fold change: 2.61
  bta-miR-184 Log fold change: 1.38
  bta-miR-187 Fold change: −2.07
  bta-miR-187 Log fold change: −1.05
  bta-miR-193a-5p Fold change: 1.60
  bta-miR-193a-5p Log fold change: 0.68
  bta-miR-197 Fold change: 1.37
  bta-miR-197 Log fold change: 0.46
  bta-miR-199a-3p Fold change: 1.92
  bta-miR-199a-3p Log fold change: 0.94
  bta-miR-296-5p Fold change: 2.10
  bta-miR-296-5p Log fold change: 1.07
  bta-miR-320a Fold change: 1.68
  bta-miR-320a Log fold change: 0.75
  bta-miR-326 Fold change: 1.47
  bta-miR-326 Log fold change: 0.55
  bta-miR-331-3p Fold change: 1.61
  bta-miR-331-3p Log fold change: 0.69
  bta-miR-365-3p Fold change: 1.59
  bta-miR-365-3p Log fold change: 0.67
  bta-miR-374a Fold change: −1.59
  bta-miR-374a Log fold change: −0.67
  bta-miR-500 Fold change: 1.43
  bta-miR-500 Log fold change: 0.51
  bta-miR-652 Fold change: 1.46
  bta-miR-652 Log fold change: 0.54
  bta-miR-877 Fold change: 1.93
  bta-miR-877 Log fold change: 0.95
  bta-miR-1249 Fold change: 1.43
  bta-miR-1249 Log fold change: 0.52
  bta-miR-1260b Fold change: 1.63
  bta-miR-1260b Log fold change: 0.70
  bta-miR-1307 Fold change: 1.49
  bta-miR-1307 Log fold change: 0.57
  bta-miR-2285bf Fold change: −1.52
  bta-miR-2285bf Log fold change: −0.61
  bta-miR-2447 Fold change: 1.92
  bta-miR-2447 Log fold change: 0.94
  bta-miR-6523a Fold change: 1.39
  bta-miR-6523a Log fold change: 0.47
  bta-miR-6529a Fold change: 1.32
  bta-miR-6529a Log fold change: 0.40
  hsa-let-7d-3p Fold change: 1.62
  hsa-let-7d-3p Log fold change: 0.70
  hsa-miR-30e-5p Fold change: −1.45
  hsa-miR-30e-5p Log fold change: −0.54
  hsa-miR-16-1-3p Fold change: −2.57
  hsa-miR-16-1-3p Log fold change: −1.36
  hsa-miR-21-5p Fold change: −1.33
  hsa-miR-21-5p Log fold change: −0.41
  hsa-miR-29a-3p Fold change: −1.32
  hsa-miR-29a-3p Log fold change: 0.40
  hsa-miR-29b-1-5p Fold change: 1.90
  hsa-miR-29b-1-5p Log fold change: 0.92
  hsa-miR-142-3p Fold change: −1.57
  hsa-miR-142-3p Log fold change: −0.65
  hsa-miR-142-5p Fold change: −1.55
  hsa-miR-142-5p Log fold change: −0.63
  hsa-miR-143-3p Fold change: −1.96
  hsa-miR-143-3p Log fold change: −0.97
  hsa-miR-152-3p Fold change: −1.37
  hsa-miR-152-3p Log fold change: 0.45
  hsa-miR-155-5p Fold change: 1.31
  hsa-miR-155-5p Log fold change: 0.39
  hsa-miR-192-5p Fold change: −1.47
  hsa-miR-192-5p Log fold change: −0.56
  hsa-miR-340-5p Fold change: −1.47
  hsa-miR-340-5p Log fold change: −0.56
  hsa-miR-532-3p Fold change: 1.51
  hsa-miR-532-3p Log fold change: 0.60
  hsa-miR-574-3p Fold change: 1.36
  hsa-miR-574-3p Log fold change: 0.44
  hsa-miR-1260b Fold change: 2.19
  hsa-miR-1260b Log fold change: 1.13
  hsa-miR-9983-3p Fold change: −1.40
  hsa-miR-9983-3p Log fold change: 0.48
  hsa-miR-10395-3p Fold change: −2.92
  hsa-miR-10395-3p Log fold change: −1.55
  hsa-miR-12135 Fold change: −1.63
  hsa-miR-12135 Log fold change: −0.71
After rest period, prior to LPS challenge
  Number of miRNAs significantly altered: 51
